Patent publication US9782393B2, “Pharmaceutical compositions and methods for treating cancer and biomarkers for drug screening” (NATIONAL DEFENSE MEDICAL CENTER, priority 2013, dated 2017)
Read-outs that look alike come from different tables or passages of the source.

Columns and labels:
[1] = tested on: ACHN cells; experiment: SRB assay, growth inhibition of ACHN cells; format: cell-based, Human; conditions: 5 μM sorafenib, 10 μM GW5074, single or combined, 24 hours
Method: Human renal carcinoma (ACHN) cells were cultured in Eagle MEM (Minimum Essential Medium) with 10% FBS (Fetal Bovine Serum) and 1% penicillin/streptomycin. Sulforhodamine B (SRB) is a negative […] with a sulfonic acid group and binds to basic amino acids of intracellular proteins in weak acidic conditions. The SRB […] was extracted from cells using weak alkaline solution and then subjected to absorbance measurement. The amount of intracellular proteins, which is an indicator for cell survival, can be calculated from the amount of SRB. ACHN or A498 cells were treated singularly with 2.5 μM sorafenib, 5 μM sorafenib, 10 μM sorafenib, GW5074, L779450 or PLX4720 for 24, 48 and 72 hours, followed by SRB assay to assess cell survival. Alternatively, ACHN cells were pre-treated with 10 μM GW5074, 10 μM L779450 or 10 μM PLX4720 for 30 minutes prior to 5 μM sorafenib treatment for additional 24, 48 and 72 hours, followed by SRB assay to assess growth inhibition.

[2] = tested on: ACHN cells; experiment: ACHN xenograft in immunodeficient mice, tumor volume; format: in vivo; conditions: printed as 5 μM sorafenib, 10 μM GW5074, separate or combined; once a day for three weeks; n=8
Method: Six-week old immnunodeficient male mice (BALB/cAnN.Cg-Foxn1^nu/CrlNarl) with an average weight of 20 grams were xenografted with 1×10^7 ACHN cells to the right by […]. The mice were maintained in a specific pathogen-free (SPF) environment. The size of tumor was measured using a digital caliper twice a week and tumor volume was calculated by the equation of length*width*height*0.5. […] A total of four groups were included in the experiment: a control group which received only vehicle (DMSO), […], 25 mg/kg GW5074, […], respectively, with 8 mice in each group.

[3] = tested on: ACHN cells; experiment: Annexin V-FITC / propidium iodide flow cytometry, cell necroptosis; format: cell-based, Human; conditions: 24 hours, 5 μM sorafenib, 10 μM GW5074, or both
Method: (§1) Cells were cultured as described in example 1, washed with phosphate buffered saline (PBS), and stained with annexin V-FITC and propidium iodide (PI) for 15 minutes. The presence of fluorescent Annexin V as well as propidium iodide (PI) was detected by flow cytometry so as to determine whether the cell death is caused by apoptosis or necrosis. The expression of c-Raf and DAPK as well as the phosphorylation status of DAPK were examined by Western blot and immunoprecipitation using antibodies. Anti-DAPK antibodies or non-immune rabbit IgG (IP: immunoglobulin) were included as negative controls, and cell survival was measured by SRB assay, as shown in example 1.

[4] = tested on: Luc-ACHN-LL cells
Method: Immunodeficient male mice was injected with 3×10^5 Luc-ACHN-LL cells in 50 μL PBS at the right renal capsule. In vivo luciferase activity was examined every day for up to three weeks so as to assure no leakage of cancer cells at the kidneys immediately after injection and to monitor metastasis of these cancer cells. Two to five minutes before utilizing the IVIS Xenogene system, 75 mg/kg D-Luciferin (Xenogen) in PBS was injected to the retro-orbital sinus of each mouse. Two weeks after injection of Luc-ACHN-LL cells, IVIS Xenogene system was used to monitor transfer of biological fluorescent images and to calculate the intensities of the photon signals (photons/s/cm^2/steradian). A total of five groups were included in the study: a control group which received only vehicle, and four test groups which respectively received 10 mg/kg sorafenib, 25 mg/kg GW5074, a combination therapy of 10 mg/kg sorafenib and 25 mg/kg GW5074 (the animals were fed with Sor 30 min post i.p. injection of GW), or 60 mg/kg sorafenib.

[5] = tested on: pDAPK^S308; format: cell-based, Human; conditions: ACHN cells; PP2A inhibitor, various concentrations, provided 30 minutes prior to the combination drugs
Method: as §1, with “1. In this experiment, ACHN cells were treated separately with DMSO (as a control group), 5 μM sorafenib, 10 μM GW5074, or combination therapy of 5 μM sorafenib and 10 μM GW5074 for 24 hours.” for “1.”

[6] = 10 mg/kg sorafenib, 25 mg/kg GW5074, or both

Row | SMILES | growth inhibition of cells [1] | xenografted tumor volume, inhibition effect [2] | average cell necroptosis rate [3] [%] | death within weeks following injection of cancer cells (survival) [4, 6] [weeks] | inhibition of dephosphorylation of pDAPK^S308 under combination therapy [5] | death within weeks following injection of cancer cells (survival) ([4]; high-dose 60 mg/kg sorafenib) [weeks] | body weight ([4]; mouse, in vivo, 60 mg/kg)
1 | O=C1Nc2ccc(I)cc2/C1=C/c1cc(Br)c(O)c(Br)c1 [GW5074, 3-(3,5-Dibromo-4-hydroxy-benzylidene)-5-iodo-1,3-dihydro-indol-2-one] | no growth inhibition | nearly no inhibition effect | 1.35 | ≤ 5 | – | – | –
2 | C=C1[C@@H](O)[C@@H]2O[C@]3(CC[C@H](/C=C/[C@@H](C)[C@@H]4CC(C)=C[C@@]5(O[C@H](C[C@@](C)(O)C(=O)O)CC[C@H]5O)O4)O3)CC[C@H]2O[C@@H]1[C@@H](O)C[C@H](C)[C@H]1O[C@@]2(CCCCO2)CC[C@H]1C [Okadaic acid] | – | – | – | – | effective in inhibition of dephosphorylation of pDAPK^S308 | – | –
3 | CNC(=O)c1cc(Oc2ccc(NC(=O)Nc3ccc(Cl)c(C(F)(F)F)c3)cc2)ccn1 [sorafenib] | no growth inhibition | nearly no inhibition effect | 0.77 | ≤ 8 | – | ≤ 10 | loss of weight
